Like-named read-outs stand apart in the source and are kept apart here.
Molecular target: T1, recombinant human estrone sulfatase (Homo sapiens, UniProt P08842)
T1 construct: made in house; host or cells: Chinese Hamster Ovary (CHO) cells
T1 sequence (P08842 22-583): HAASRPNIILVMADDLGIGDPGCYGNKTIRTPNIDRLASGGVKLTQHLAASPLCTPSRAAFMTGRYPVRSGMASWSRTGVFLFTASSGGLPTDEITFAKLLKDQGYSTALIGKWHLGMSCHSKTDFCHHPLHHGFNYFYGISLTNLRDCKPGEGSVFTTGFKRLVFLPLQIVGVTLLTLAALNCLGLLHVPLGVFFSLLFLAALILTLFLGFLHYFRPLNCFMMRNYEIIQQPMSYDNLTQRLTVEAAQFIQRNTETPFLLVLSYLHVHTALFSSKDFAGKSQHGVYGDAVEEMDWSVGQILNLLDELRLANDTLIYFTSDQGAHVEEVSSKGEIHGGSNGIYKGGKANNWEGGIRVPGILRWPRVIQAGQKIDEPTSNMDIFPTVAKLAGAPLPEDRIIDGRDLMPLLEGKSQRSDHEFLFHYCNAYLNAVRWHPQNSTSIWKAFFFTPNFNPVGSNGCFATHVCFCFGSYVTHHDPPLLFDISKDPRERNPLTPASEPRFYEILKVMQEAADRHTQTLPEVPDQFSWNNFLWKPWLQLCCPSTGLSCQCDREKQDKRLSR
Test: in vitro conversion assay: inhibition of conversion of 3H-estrone sulfate to 3H-estrone by estrone sulfatase
Assay type: biochemical
Method: The compounds prepared according to the methods of the above Examples were tested for biological activity in inhibiting sulfatase activity using an in vitro conversion assay procedure. As will be appreciated by those skilled in the art, this assay is based on inhibition of the conversion of ^3H-estrone sulfate to ^3H-estrone by the enzyme estrone sulfatase. The final volume of the enzyme assay was 0.15 ml. [6.7-^3H] estrone sulfate (final concentration 3.3 nmole/L; 300,000 dpm/tube); an inhibitor at various concentrations in DMSO and recombinant human estrone sulfatase (33 ng/tube) in phosphate buffered saline, containing 0.25 M sucrose and 0.04 M nicotinamide, pH 7, were added to a 1.5 ml microtube. Recombinant human estrone sulfatase was partially purified from Chinese Hamster Ovary (CHO) cells in which human estrone sulfatase cDNA was transfected. The assay began by the addition of the substrate estrone sulfate. After 60 minutes of incubation at 37° C., 0.5 ml of toluene were added to quench the assay. Control samples with no inhibitor were incubated simultaneously. Blank samples were obtained by incubating without estrone sulfatase. The quenched samples were vortexed for 30 seconds and centrifuged (9,000 rpm for 5 minutes). Two hundred and fifty microliters of toluene were obtained from each quenched sample to determine the amount of product formation. Product formation for samples containing an inhibitor was compared to that of control samples (without inhibitors) run simultaneously. This was reported as percent inhibition of control sample which equals
100× Product formation for sample containing inhibitor Product formation for sample with no inhibitor (control)
Each concentration was tested in duplicate in three separate experiments.

[1] = Table 3 (Example 8; compounds 7, 29d, 29h, 29m), same in vitro conversion assay, read-out: IC50

CCCNC(=O)[C@H]1CC[C@H]2[C@@H]3CCc4cc(OS(N)(=O)=O)ccc4[C@H]3CC[C@]12C [Compound 7, 17β-(N-Propylcarbamoyl)estra-1,3,5(10)-trien-3-yl sulfamate]
IC50 [1]: 19 nM

CC(C)CNC(=O)[C@H]1CC[C@H]2[C@@H]3CCc4cc(OS(N)(=O)=O)ccc4[C@H]3CC[C@]12C [Compound 29d, 17β-(N-Isobutylcarbamoyl)estra-1,3,5(10)-trien-3-yl sulfamate]
IC50: 6.5 nM

CC(C)NC(=O)[C@H]1CC[C@H]2[C@@H]3CCc4cc(OS(N)(=O)=O)ccc4[C@H]3CC[C@]12C [Compound 29h, 17β-(N-Isopropylcarbamnoyl)estra-1,3,5(10)-trien-3-yl sulfamate]
IC50 [1]: 17 nM

CCCN(C)C(=O)[C@H]1CC[C@H]2[C@@H]3CCc4cc(OS(N)(=O)=O)ccc4[C@H]3CC[C@]12C [Compound 29m, 17β-(N-methyl-N-Propylcarbamoyl)estra-1,3,5 (10)-trien-3-yl sulfamate]
IC50: 5.5 nM

Source: patent US6436918B1, “Steroid sulfatase inhibitors and methods for making and using the same” (Duquesne University of the Holy Ghost, priority 1997, dated 2002)
